Test [1] deals with cytomegalovirus (A0169 strain). In words: Anti-cytomegalovirus activity, plaque formation in human fetal fibroblasts. Format: cell-based. The following applies: Human betaherpesvirus 5, Fibroblast, 240 h, 100 PFU, 37° C., 10 days, read-out: Anti-cytomegalovirus Activity ED50 (50% inhibitory value). How it is done:
Anti-cytomegalovirus activity was determined by the following manner. A 35 mm.PHI. dish containing a single layer of human fetal fibroblasts was infected with 100 PFU (plaque forming units) of cytomegalovirus (A0169 strain). After adsorption for one hour, a medium (0.5% agarose, 2% fetal calf serum) containing a varied concentration of the compound of the present invention was superposed thereon, and the whole was cultured at 37° C. for 10 days in 5% (v/v) carbon dioxide incubator, after which the formation of plaque was measured. The results are shown in Table 3 in terms of 50% inhibitory value (ED50).

Test [2] relates to DNA virus such as cytomegalovirus, hepatitis B virus, herpes virus. The experiment in a line: Antiviral activity (summary statement). The following applies: summary of results.
In the next test the test system is HIV. The experiment in a line: Anti-HIV activity in MT-4 cells, development of virus antigen by indirect fluorescent antibody method. The test is classed as cell-based. To be noted: for EC50: Human immunodeficiency virus 1, MT4, 96 h, MT-4 cells, 4 days culture after HIV infection, read-out: Development of Virus Antigen Activity ED50; for anti-HIV activity (in words): summary of results. The procedure: MT-4 cell (about 10,000 cells/ml) was added to a 24 well tray, and then 100 μl of a solution containing a predetermined quantity of Compound No. 1 of the present invention was added. After culturing at 37° C. for 5 hours in 5% (v/v) carbon dioxide incubator, 10^3 to 10^4 infection units of HIV was added and cultured for 4 days. Then, a part of the cultured fluid was coated onto a slide glass and immobilized with acetone, after which development of virus antigen was observed by indirect fluorescent antibody method.
As the primary antibody of the fluorescent antibody method, a serum of AIDS patient was used. As its secondary antibody, FITC-labelled […] was used.

The target in test [3] is T1, reverse transcriptase (RTase) of HIV (Human immunodeficiency virus type 1 group M subtype B, UniProt P04585).
T1 construct: Measurement of Activity of Reverse Transcriptase (RTase) of HIV; endogenous in cells; host or cells: MOLT-4/HTLV-IIIB cells persistently infected with HIV (viral protein made by the infection; crude lysate)
The experiment in a line: Inhibition of HIV reverse transcriptase (RTase), 3H-AMP uptake. The test is classed as biochemical, human immunodeficiency virus (HTLV-IIIB). The procedure: Measurement of Activity of Reverse Transcriptase (RTase) of HIV
MOLT-4/HTLV-IIIB cells which were persistently infected with HIV were destroyed with Triton X-100 or the like to prepare crude enzyme (RTase).
Using poly(dT) and oligo(dA) as template primers, the following reaction solution was used.
2. Composition of reaction solution
______________________________________
5 mg/ml Bovine serum albumin
1M Tris-HCl buffer (pH 7.8)
100 mM Dithiothreitol 2.0
5 units/ml Oligo(dA) 4.0
Uptake of ^3 H-AMP in the acid-insoluble fraction in the reaction solution under the above conditions was determined by a liquid scintillation counter.

In test [4] the target is HBV-intrinsic DNA polymerase (Hepatitis B virus adr4, UniProt P12933). In words: Inhibitory activity on HBV-intrinsic DNA polymerase, HBV core particles from HB611 cells. The test is classed as biochemical. The procedure:
1. Partial purification of HBV core particles
After HB611 cells were homogenized with buffer solution for extraction shown below, the centrifugal supernatant (14000 rpm, 0° C., 30 minutes) was overlaid on 30% saccharose-containing buffer solution for extraction, which was subjected to supercentrifugation (35000 rpm, 4° C., 18 hours) to give crude core particle precipitates. The crude core particles were suspended in the buffer solution for extraction and purified by cesium chloride density-gradient centrifugation method to give partially purified core particles showing a density of 1.30 to 1.35 g/ml.
Buffer solution for extraction:
2-mercaptoethanol/1 mM PMSF): 10 mM
Tris-hydrochloride (pH 7.4), 1 mM EDTA, 10 mM
2. Measurement of HBV-intrinsic polymerase activity
The partially purified core particles were added to the reaction solution shown below. After incubating at 37° C. for 2 hours in the presence of Compound No. 3 in various concentrations, dCTP was added thereto in a final concentration of 1 mM. After incubation at 37° C. for an additional an hour, proteinase K, SDS, EDTA and tRNA were added thereto in final concentrations of 0.5 mg/ml, 1%, 10 mM and 200 μg/ml, respectively, followed by incubation at 45° C. for 2 hours. Thereafter HBV-DNA was purified by phenolchloroform extraction and ethanol precipitation and then subjected to electrophoresis with 1.5% agarose. Radioactive uptake in HBV-DNA was determined by autoradiography. The autoradiogram was scanned by a densitometer to calculate the inhibitory activity of Compound No. 3 against HBV-DNA polymerase.
Reaction solution: containing 50 mM Tris-hydrochloride
(pH 7.4), 30 mM magnesium chloride, 0.1 M
ammonium chloride, 0.2% 2-mercaptoethanol,
200 μM each of dATP, dGTP and dTTP

In brackets after ≈: the same amount, converted by molar mass.

The values that follow come from patent publication US5179084A, “Antiviral phosphoric acid esters of oxetanocins” (Nippon Kayaku Kabushiki Kaisha, priority 1989, dated 1993).

Chain of HBV-intrinsic DNA polymerase (P12933 whole entry): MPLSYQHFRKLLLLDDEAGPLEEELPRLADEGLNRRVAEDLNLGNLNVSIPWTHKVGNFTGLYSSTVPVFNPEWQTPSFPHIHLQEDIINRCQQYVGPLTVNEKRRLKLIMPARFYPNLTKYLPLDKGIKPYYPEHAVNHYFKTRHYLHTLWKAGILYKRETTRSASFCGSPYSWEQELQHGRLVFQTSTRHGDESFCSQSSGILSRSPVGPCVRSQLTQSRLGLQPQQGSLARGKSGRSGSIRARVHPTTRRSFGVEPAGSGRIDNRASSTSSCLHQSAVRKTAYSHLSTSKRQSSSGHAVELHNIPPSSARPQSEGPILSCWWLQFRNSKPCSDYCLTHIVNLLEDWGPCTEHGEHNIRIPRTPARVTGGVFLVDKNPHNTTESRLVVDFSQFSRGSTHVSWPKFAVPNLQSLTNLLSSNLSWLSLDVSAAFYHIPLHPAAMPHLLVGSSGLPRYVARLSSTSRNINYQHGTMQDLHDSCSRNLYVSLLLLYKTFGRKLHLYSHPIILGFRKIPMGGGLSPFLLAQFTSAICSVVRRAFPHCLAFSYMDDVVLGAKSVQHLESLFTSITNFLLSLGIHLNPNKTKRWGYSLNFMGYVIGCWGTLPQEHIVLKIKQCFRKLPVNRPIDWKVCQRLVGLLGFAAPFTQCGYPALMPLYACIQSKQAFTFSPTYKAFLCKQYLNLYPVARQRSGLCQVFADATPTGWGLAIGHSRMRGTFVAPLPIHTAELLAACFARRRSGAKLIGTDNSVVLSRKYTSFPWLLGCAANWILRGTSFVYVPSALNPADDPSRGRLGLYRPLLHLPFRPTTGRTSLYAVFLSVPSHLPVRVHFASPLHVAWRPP

Regarding `Nc1nc2c(ncn2[C@@H]2O[C@H](COP(=O)(O)O)[C@H]2CO)c(=O)[nH]1` [Compound No. 5], the EC50 in test [1] is 0.4 µg/mL (≈ 1.15 µM). In test [2], the “antiviral activity against DNA virus (in words)” value is on record as “excellent antiviral activity against DNA virus”.
In the case of `Nc1ncnc2c1ncn2[C@@H]1O[C@H](COP(=O)(O)O)[C@H]1CO` [Compound No. 1], in test [1], the EC50 amounted to 1.85 µg/mL (≈ 5.59 µM). In addition, in the test with HIV, the EC50 was 0.1 µg/mL (≈ 0.302 µM) and the “anti-HIV activity (in words)” value was “excellent anti-HIV activity”.
As a reminder, the inhibition is how much of the control response was suppressed. The compound `Nc1ncnc2c1ncn2[C@@H]1O[C@H](COP(=O)(O)OP(=O)(O)OP(=O)(O)O)[C@H]1CO` [Compound No. 2] yielded an inhibition at 4.17 µM in test [3] (4.17 μM, 37° C., 1 hour) of 1%. This compound displayed an inhibition at 12.5 µM in test [3] (12.5 μM, 37° C., 1 hour) of 33.9%. The inhibition at 125 µM in test [3] (125 μM, 37° C., 1 hour) is 93%. The compound further showed an inhibition at 417 µM in test [3] (417 μM, 37° C., 1 hour) of 98.8%. The inhibition at 42.7 µM in test [3] (read-out: RTase Inhibition (%)) stood at 69.4%. Moreover, the “reverse transcriptase inhibitory action of HIV (in words)” value in test [3] (summary of results) was “shows reverse transcriptase inhibitory action of HIV”.
Take `Nc1ncnc2c1ncn2[C@H]1C[C@@H](COP(=O)(O)O)O1` [Compound No. 6]: in the test on HIV, the EC50 was found to be 0.007 µg/mL (≈ 0.0232 µM) and the “anti-HIV activity (in words)” value is recorded as “excellent anti-HIV activity”.
`Nc1nc2c(ncn2[C@@H]2O[C@H](COP(=O)(O)OP(=O)(O)OP(=O)(O)O)[C@H]2CO)c(=O)[nH]1` [Compound No. 3]: the inhibition at 100 µM in test [4] (100 μM, read-out: Inhibition Rate (HBV-DNA polymerase)) was 50.7%. Besides, in test [4] (200 μM, read-out: Inhibition Rate (HBV-DNA polymerase)), the inhibition at 200 µM amounted to 88.8%. In test [4] (400 μM, read-out: Inhibition Rate (HBV-DNA polymerase)), the inhibition at 400 µM is 96.8%. Besides, the “inhibition of DNA polymerase of DNA virus (in words)” value in test [4] (summary of results, 'the aforesaid DNA virus') was “inhibits DNA polymerase of the aforesaid DNA virus”.
